Measurements from paper PMC7835349 (Communications Biology, 2021).
Values joined by “and” are separate entries in the source; they are usually repeats but may differ in a detail not shown here. Equal entries are not always repeated.

Test system: telemetered dogs
Test: Conscious dog telemetry (QRS amplitude and other cardiovascular parameters, tolerability)
[1] = dog 264, 0.2 mg/kg, 0.5h infusion, -0.75 hours (pre-dose)
[2] = dog 264, 0.2 mg/kg, 0.5h infusion, -1 hours (pre-dose)
[3] = dog 264, 0.2 mg/kg, 0.5h infusion, -1.25 hours (pre-dose)
[4] = dog, 0.2 mg/kg 0.5h infusion, 0.5 h, 0.2 mg/kg
[5] = dog, 0.2 mg/kg 0.5h infusion, 0.75 h, 0.2 mg/kg
[6] = dog, 0.2 mg/kg 0.5h infusion, 1 h, 0.2 mg/kg
[7] = dog, 0.2 mg/kg 0.5h infusion, 1.5 h, 0.2 mg/kg
[8] = dog, 0.2 mg/kg 0.5h infusion, 2 h, 0.2 mg/kg
[9] = dog, 0.2 mg/kg 0.5h infusion, 3 h, 0.2 mg/kg
[10] = dog, 0.2 mg/kg 0.5h infusion, 4 h, 0.2 mg/kg
[11] = dog, 0.2 mg/kg 0.5h infusion, 6 h, 0.2 mg/kg
[12] = dog, 0.2 mg/kg 0.5h infusion, 8 h, 0.2 mg/kg
[13] = dog, 0.2 mg/kg 0.5h infusion, 12 h, 0.2 mg/kg
[14] = dog, 0.2 mg/kg 0.5h infusion, 16 h, 0.2 mg/kg
[15] = dog, 0.2 mg/kg 0.5h infusion, 22 h, 0.2 mg/kg
[16] = dog, 0.2 mg/kg 0.5h infusion, -0.75 h, 0.2 mg/kg
[17] = dog, 0.2 mg/kg 0.5h infusion, -1 h, 0.2 mg/kg
[18] = dog, 0.2 mg/kg 0.5h infusion, -1.25 h, 0.2 mg/kg
[19] = dog, 0.85 mg/kg 0.5h infusion, 0.5 h, 0.85 mg/kg
[20] = dog, 0.85 mg/kg 0.5h infusion, 0.75 h, 0.85 mg/kg
[21] = dog, 0.85 mg/kg 0.5h infusion, 1 h, 0.85 mg/kg

SMILES: CN(CCO)CCC(CSc1ccccc1)Nc1ccc(S(=O)(=O)NC(=O)c2ccc(N3CCC(C(O)c4ccccc4-c4ccc(Cl)cc4)CC3)cc2)cc1S(=O)(=O)C(F)(F)F (stereo not drawn) [AZD4320]
- NOEL (no observed effect level), cardiovascular system (dog): 0.2 mg/kg
- ECG PR interval [1]: 111 ms
- ECG QRS duration [1]: 46 ms
- Left ventricular -dP/dt (mmHg/s) [1]: 3600 mmHg/s
- QRS amplitude (% baseline) [1]: 92 % baseline
- Systolic blood pressure (mmHg) [1]: 151 mmHg
- ECG PR interval [2]: 116 ms
- ECG QRS duration [2]: 48 ms
- Left ventricular -dP/dt (mmHg/s) [2]: 3490 mmHg/s
- QRS amplitude (% baseline) [2]: 71 % baseline
- Systolic blood pressure (mmHg) [2]: 155 mmHg
- ECG PR interval [3]: 111 ms
- ECG QRS duration [3]: 47 ms
- QRS amplitude (% baseline) [3]: 83 % baseline
- Systolic blood pressure (mmHg) [3]: 145 mmHg
- ECG PR interval [4]: 109 ms and 90 ms and 88 ms
- ECG QRS duration [4]: 48 ms and 38 ms and 40 ms and 37 ms
- Left ventricular -dP/dt (mmHg/s) [4]: 3401 mmHg/s and 3547 mmHg/s and 3477 mmHg/s and 4862 mmHg/s
- QRS amplitude (% baseline) [4]: 105 % baseline and 100 % baseline and 97 % baseline and 101 % baseline
- Systolic blood pressure (mmHg) [4]: 175 mmHg and 149 mmHg and 155 mmHg and 165 mmHg
- ECG PR interval [5]: 113 ms and 82 ms and 85 ms and 87 ms
- ECG QRS duration [5]: 49 ms and 37 ms and 40 ms
- Left ventricular -dP/dt (mmHg/s) [5]: 3504 mmHg/s and 3607 mmHg/s and 3634 mmHg/s and 4976 mmHg/s
- QRS amplitude (% baseline) [5]: 94 % baseline and 91 % baseline and 92 % baseline
- Systolic blood pressure (mmHg) [5]: 163 mmHg and 153 mmHg and 156 mmHg and 164 mmHg
- ECG PR interval [6]: 116 ms and 88 ms and 93 ms
- ECG QRS duration [6]: 47 ms and 38 ms and 40 ms and 37 ms
- Left ventricular -dP/dt (mmHg/s) [6]: 3285 mmHg/s and 3388 mmHg/s and 2965 mmHg/s and 4801 mmHg/s
- QRS amplitude (% baseline) [6]: 88 % baseline and 90 % baseline and 92 % baseline and 95 % baseline
- Systolic blood pressure (mmHg) [6]: 150 mmHg and 144 mmHg and 138 mmHg and 159 mmHg
- ECG PR interval [7]: 119 ms and 95 ms and 104 ms and 88 ms
- ECG QRS duration [7]: 49 ms and 38 ms and 40 ms and 37 ms
- Left ventricular -dP/dt (mmHg/s) [7]: 3080 mmHg/s and 3480 mmHg/s and 2336 mmHg/s and 4643 mmHg/s
- QRS amplitude (% baseline) [7]: 83 % baseline and 97 % baseline and 84 % baseline and 99 % baseline
- Systolic blood pressure (mmHg) [7]: 135 mmHg and 152 mmHg and 130 mmHg and 156 mmHg
- ECG PR interval [8]: 110 ms and 85 ms and 101 ms and 91 ms
- ECG QRS duration [8]: 47 ms and 37 ms and 40 ms
- QRS amplitude (% baseline) [8]: 86 % baseline and 90 % baseline and 91 % baseline and 95 % baseline
- Systolic blood pressure (mmHg) [8]: 167 mmHg and 155 mmHg and 129 mmHg and 164 mmHg
- ECG PR interval [9]: 115 ms and 98 ms and 96 ms and 89 ms
- ECG QRS duration [9]: 48 ms and 37 ms and 39 ms and 36 ms
- Left ventricular -dP/dt (mmHg/s) [9]: 3439 mmHg/s and 3333 mmHg/s and 2944 mmHg/s and 5068 mmHg/s
- QRS amplitude (% baseline) [9]: 121 % baseline and 94 % baseline and 76 % baseline and 88 % baseline
- Systolic blood pressure (mmHg) [9]: 164 mmHg and 159 mmHg and 145 mmHg and 170 mmHg
- ECG PR interval [10]: 106 ms and 97 ms and 92 ms and 91 ms
- ECG QRS duration [10]: 46 ms and 36 ms and 39 ms
- Left ventricular -dP/dt (mmHg/s) [10]: 3609 mmHg/s and 3205 mmHg/s and 2963 mmHg/s and 4495 mmHg/s
- QRS amplitude (% baseline) [10]: 97 % baseline and 82 % baseline and 80 % baseline and 89 % baseline
- Systolic blood pressure (mmHg) [10]: 153 mmHg and 136 mmHg and 139 mmHg and 152 mmHg
- ECG PR interval [11]: 96 ms and 86 ms and 89 ms and 67 ms
- ECG QRS duration [11]: 48 ms and 37 ms and 39 ms
- Left ventricular -dP/dt (mmHg/s) [11]: 2830 mmHg/s and 3356 mmHg/s and 3220 mmHg/s and 3767 mmHg/s
- QRS amplitude (% baseline) [11]: 108 % baseline and 84 % baseline and 81 % baseline and 102 % baseline
- Systolic blood pressure (mmHg) [11]: 147 mmHg and 145 mmHg and 158 mmHg
- ECG PR interval [12]: 98 ms and 88 ms and 86 ms and 73 ms
- ECG QRS duration [12]: 48 ms and 37 ms and 39 ms
- Left ventricular -dP/dt (mmHg/s) [12]: 3465 mmHg/s and 3133 mmHg/s and 2471 mmHg/s and 4567 mmHg/s
- QRS amplitude (% baseline) [12]: 100 % baseline and 88 % baseline and 97 % baseline and 93 % baseline
- Systolic blood pressure (mmHg) [12]: 144 mmHg and 140 mmHg and 137 mmHg and 142 mmHg
- ECG PR interval [13]: 101 ms and 87 ms and 98 ms and 66 ms
- ECG QRS duration [13]: 49 ms and 38 ms and 40 ms and 37 ms
- Left ventricular -dP/dt (mmHg/s) [13]: 3004 mmHg/s and 2664 mmHg/s and 2608 mmHg/s and 4493 mmHg/s
- QRS amplitude (% baseline) [13]: 121 % baseline and 90 % baseline and 84 % baseline
- Systolic blood pressure (mmHg) [13]: 133 mmHg and 131 mmHg and 134 mmHg and 165 mmHg
- ECG PR interval [14]: 108 ms and 95 ms and 94 ms and 77 ms
- ECG QRS duration [14]: 47 ms and 37 ms and 40 ms
- Left ventricular -dP/dt (mmHg/s) [14]: 2948 mmHg/s and 3176 mmHg/s and 2965 mmHg/s and 4367 mmHg/s
- QRS amplitude (% baseline) [14]: 91 % baseline and 93 % baseline and 81 % baseline and 101 % baseline
- Systolic blood pressure (mmHg) [14]: 151 mmHg and 132 mmHg and 146 mmHg and 164 mmHg
- ECG PR interval [15]: 115 ms and 93 ms and 97 ms and 80 ms
- ECG QRS duration [15]: 48 ms and 38 ms and 39 ms
- Left ventricular -dP/dt (mmHg/s) [15]: 3689 mmHg/s and 2854 mmHg/s and 2653 mmHg/s and 4540 mmHg/s
- QRS amplitude (% baseline) [15]: 114 % baseline and 97 % baseline and 102 % baseline
- Systolic blood pressure (mmHg) [15]: 156 mmHg and 142 mmHg
- ECG PR interval [16]: 90 ms and 106 ms and 89 ms
- ECG QRS duration [16]: 37 ms and 40 ms
- Left ventricular -dP/dt (mmHg/s) [16]: 3499 mmHg/s and 3284 mmHg/s and 4521 mmHg/s
- QRS amplitude (% baseline) [16]: 97 % baseline and 88 % baseline and 93 % baseline
- Systolic blood pressure (mmHg) [16]: 168 mmHg and 148 mmHg and 160 mmHg
- ECG PR interval [17]: 91 ms and 102 ms and 82 ms
- ECG QRS duration [17]: 38 ms and 40 ms and 37 ms
- Left ventricular -dP/dt (mmHg/s) [17]: 3364 mmHg/s and 3529 mmHg/s and 4819 mmHg/s
- QRS amplitude (% baseline) [17]: 99 % baseline and 90 % baseline and 93 % baseline
- Systolic blood pressure (mmHg) [17]: 161 mmHg and 160 mmHg and 157 mmHg
- ECG PR interval [18]: 90 ms and 95 ms and 93 ms
- ECG QRS duration [18]: 37 ms and 40 ms
- Left ventricular -dP/dt (mmHg/s) [18]: 3238 mmHg/s and 3347 mmHg/s and 4656 mmHg/s
- QRS amplitude (% baseline) [18]: 104 % baseline and 91 % baseline and 97 % baseline
- Systolic blood pressure (mmHg) [18]: 147 mmHg and 150 mmHg and 151 mmHg
- QRS amplitude (% baseline) (dog, 0.2 mg/kg 0.5h infusion, -[…]): 100 % baseline
- ECG PR interval [19]: 115 ms and 79 ms
- ECG QRS duration [19]: 45 ms and 37 ms and 40 ms
- Left ventricular -dP/dt (mmHg/s) [19]: 3662 mmHg/s and 3777 mmHg/s and 3464 mmHg/s
- QRS amplitude (% baseline) [19]: 94 % baseline and 95 % baseline and 97 % baseline
- Systolic blood pressure (mmHg) [19]: 155 mmHg and 158 mmHg
- ECG PR interval [20]: 119 ms and 78 ms
- ECG QRS duration [20]: 44 ms and 38 ms and 40 ms
- Left ventricular -dP/dt (mmHg/s) [20]: 3170 mmHg/s and 3744 mmHg/s and 3322 mmHg/s
- QRS amplitude (% baseline) [20]: 99 % baseline and 91 % baseline and 104 % baseline
- Systolic blood pressure (mmHg) [20]: 154 mmHg and 157 mmHg
- ECG PR interval [21]: 115 ms and 91 ms
- ECG QRS duration [21]: 44 ms and 37 ms and 40 ms
- Left ventricular -dP/dt (mmHg/s) [21]: 3366 mmHg/s and 3696 mmHg/s and 3150 mmHg/s
- QRS amplitude (% baseline) [21]: 100 % baseline and 90 % baseline and 102 % baseline
- Systolic blood pressure (mmHg) [21]: 135 mmHg and 151 mmHg
